From US11001560B2, “Compound for blocking absorption of heavy metals by plants and a composition containing the same” (SICHUAN HUI TAI AGRICULTURAL TECHNOLOGY CO. LTD., priority 2018, dated 2021) come the findings set out here.

One experiment has as its system bok choy. In words: Potted experiment: effect of compound of formula I on reducing heavy metal (Cd, Pb) content in vegetables. The format is in vivo. The method, then:
(§1) Potted experiments were carried out. The test soil was collected from the topsoil (0-20 cm) of farmland in the outskirts of Chengdu, Sichuan Province. The soil type was purple soil, with a total lead content of 1209.21 mg kg^−1 and a total cadmium content of 8.06 mg kg^−1. After the soil samples were collected, the plant residues were removed, air-dried, and passed through a 5 mm siever for later use. Test plants were bok choy and pepper. The sieved soil was filled into a tray, and 80 g of soil was filled in each tray. Before the planting, watering was carried out for 3 days to maintain the field water holding capacity of about 60%. Seeds of uniform size were selected. The surface of the seed was sterilized with ethanol: 30% H2O2 (V:V=1:1) for 3 minutes, and rinsed with sterile deionized water. The sterilized plant seeds were divided into two groups. One group was soaked in a deionized aqueous solution (5 g/L) of the compound of formula I for 4 hours, and was set as the experimental group. The other group was soaked in deionized water for the same time as the control group. The process was repeated 4 times. The seeds after soaking were sowed in a pot. After 1 week after emergence, 3 plants were left in each pot. The above soaking treatment was performed again, and the roots of the experimental group and the control group were soaked with 5 mL of an aqueous solution containing a compound of formula I and deionized water per pot, respectively. Watering the plant daily was necessary to ensure the necessary water for plant growth. Plants were harvested after 40 days of growth. The plants were removed from the pot and washed with deionized water. After harvesting, the plants were cut into roots and above ground parts along the junction of the rhizomes. The plants were put in an oven at 105° C. for 15 minutes, dried at 70° C., and weighed the dry weight of roots and above ground parts. The plant samples were grounded and digested by the nitric acid-perchloric acid method. The contents of heavy metals Pb and Cd in the plants were determined by atomic absorption spectrophotometer.

The next experiment concerns pepper. The experiment is described as above. It counts as in vivo. On the procedure:
as §1

[1] abbreviates: experimental group (5 g/L compound of formula I) vs deionized water control.
[2] abbreviates: seeds soaked 4 hours in 5 g/L aqueous solution, roots soaked again with 5 mL per pot, Pb/Cd-contaminated soil, harvested after 40 days, atomic absorption.

Consider `C/C=C/C(C[C@]1(O)CCNC[C@H](O)CCC2C=CCC(=O)C2C(=O)C/C=C/C=C/C[C@@H](O)C1)OC` (stereo partly shown) [compound of formula I], for which, in the experiment on bok choy (setting [1]), the “Cd and Pb concentrations in the above ground parts and below ground parts of bok choy, compared with the control group” value is “significantly reduce”. Besides, in the experiment with bok choy (setting [2]), the “Cd Concentration in Vegetables, Above Ground Parts, Bok Choy” value amounted to 2.08 ± 0.19 mg/L; the “Cd Concentration in Vegetables, Below Ground Parts, Bok Choy” value came out at 2.01 ± 0.33 mg/L; the “Pb Concentration in Vegetables, Above Ground Parts, Bok Choy” value is 1.51 ± 0.06 mg/L; the “Pb Concentration in Vegetables, Below Ground Parts, Bok Choy” value is listed as 6.71 ± 1.08 mg/L. In addition, in the experiment with pepper (setting [1]), the “Cd and Pb concentrations in the above ground parts and below ground parts of peppers, compared with the control group” value is given as “significantly reduce”. Further, in the experiment on pepper (setting [2]), the “Cd Concentration in Vegetables, Above Ground Parts, Pepper” value was found to be 2.89 ± 0.39 mg/L; the “Cd Concentration in Vegetables, Below Ground Parts, Pepper” value turned out to be 4.58 ± 0.11 mg/L; the “Pb Concentration in Vegetables, Above Ground Parts, Pepper” value amounted to 1.32 ± 0.08 mg/L; the “Pb Concentration in Vegetables, Below Ground Parts, Pepper” value came out at 5.11 ± 0.63 mg/L.
